Experimental data reported in PubChem BioAssay AID248 (DTP/NCI, 2004).
“And” between values parts separate entries of the source, which are not always exact repeats. Equal entries are not always repeated. Inconclusive results and toxic doses are left out. Rule as the data show it: active = T/C of 150% or more; inactive = T/C below 125%.

System: L1210 leukemia ip in BDF1 mice, survival T/C
Test: NCI In Vivo Anticancer Drug Screen. Data for tumor model L1210 Leukemia (intraperitoneal) in B6D2F1 (BDF1) mice
Details: higher = longer survival
In short: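 Antitumor effect is assessed in tumor-bearing animals. Survival in the compound arm is compared with a vehicle-dosed control arm and expressed as their quotient.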

[1] = endpoint: mean survival time, dose: 100.0 mg/kg/injection, schedule: Q04DX003 (ip), vehicle: saline with Tween-80
[2] = endpoint: mean survival time, dose: 200.0 mg/kg/injection, schedule: Q04DX003 (ip), vehicle: saline with Tween-80
[3] = endpoint: mean survival time, dose: 100.0 mg/kg/injection, schedule: Q01DX001 (ip), vehicle: saline
[4] = endpoint: mean survival time, dose: 200.0 mg/kg/injection, schedule: Q01DX001 (ip), vehicle: saline
[5] = endpoint: mean survival time, dose: 400.0 mg/kg/injection, schedule: Q01DX001 (ip), vehicle: saline
[6] = endpoint: mean survival time, dose: 100.0 mg/kg/injection, schedule: Q01DX009 (ip), vehicle: Klucel (hydroxypropylcellulose) (HPC)
[7] = endpoint: mean survival time, dose: 200.0 mg/kg/injection, schedule: Q01DX009 (ip), vehicle: Klucel (hydroxypropylcellulose) (HPC)
[8] = endpoint: mean survival time, dose: 100.0 mg/kg/injection, schedule: Q04DX003 (ip), vehicle: Klucel (hydroxypropylcellulose) (HPC)
[9] = endpoint: mean survival time, dose: 200.0 mg/kg/injection, schedule: Q04DX003 (ip), vehicle: Klucel (hydroxypropylcellulose) (HPC)
[10] = endpoint: mean survival time, dose: 400.0 mg/kg/injection, schedule: Q04DX003 (ip), vehicle: Klucel (hydroxypropylcellulose) (HPC)

Measured: T/C

CCN(CC)C(=O)CS(=O)(=O)c1ccc(N)cc1
inactive: [1] 102 % of control | [2] 97 % of control | endpoint: mean survival time, dose: 400.0 mg/kg/injection, schedule: Q04DX003 (ip), vehicle: saline with Tween-80 100 % of control

NP(O)(O)=S
inactive: endpoint: mean survival time, dose: 9.38 mg/kg/injection, schedule: Q01DX001 (ip), vehicle: saline 104 % of control | endpoint: mean survival time, dose: 18.75 mg/kg/injection, schedule: Q01DX001 (ip), vehicle: saline 98 % of control

Brc1ccc(Br)c(-c2nnc(-c3cccc4ccccc34)o2)c1
inactive: [3] 86 % of control

Cc1ccc(NC(=O)Nc2ccc(CNC(=O)COc3ccc(Cl)cc3C(=O)O)cc2)cc1S(=O)(=O)F
inactive: [3] 100 % of control | [4] 94 % of control | [5] 94 % of control

Nc1ccc(Cc2nc3ccccc3[nH]2)cc1
inactive: [3] 102 % of control | [4] 96 % of control | [5] 98 % of control

CC(C)=NNC(=O)Nc1cccc(C)c1C
inactive: [6] 90 % of control | [7] 91 % of control

Cn1c(=O)c2ncn(CC(O)COc3ccccc3)c2n(C)c1=O (configuration not stated)
inactive: [8] 102 % of control | [9] 104 % of control | [10] 101 % of control

CN(C)c1ccc(N=O)cc1
inactive: endpoint: mean survival time, dose: 0.78 mg/kg/injection, schedule: Q04DX002 (ip), vehicle: saline 89 % of control | endpoint: mean survival time, dose: 1.56 mg/kg/injection, schedule: Q01DX009 (ip), vehicle: saline 93 % of control | endpoint: mean survival time, dose: 1.56 mg/kg/injection, schedule: Q04DX002 (ip), vehicle: saline 95 % of control | endpoint: mean survival time, dose: 3.13 mg/kg/injection, schedule: Q01DX009 (ip), vehicle: saline 93 % of control | endpoint: mean survival time, dose: 3.13 mg/kg/injection, schedule: Q04DX002 (ip), vehicle: saline 95 % of control | endpoint: mean survival time, dose: 6.25 mg/kg/injection, schedule: Q01DX009 (ip), vehicle: saline 97 % of control | endpoint: mean survival time, dose: 6.25 mg/kg/injection, schedule: Q04DX002 (ip), vehicle: saline 100 % of control

O=C(O)c1cc([N+](=O)[O-])ccc1Oc1cccc([N+](=O)[O-])c1
inactive: endpoint: mean survival time, dose: 222.0 mg/kg/injection, schedule: Q01DX Z (ip), vehicle: methylcellulose (MC) 93 % of control | endpoint: mean survival time, dose: 333.0 mg/kg/injection, schedule: Q01DX Z (ip), vehicle: methylcellulose (MC) 90 % of control | endpoint: mean survival time, dose: 500.0 mg/kg/injection, schedule: Q01DX Z (ip), vehicle: methylcellulose (MC) 93 % of control

CC(=O)Nc1ccc(Cc2ccc(N=Cc3ccccc3)cc2)cc1
inactive: [3] 101 % of control | [4] 104 % of control | [5] 98 % of control

O=[N+]([O-])c1ccc2c(c1)P(=O)(O)c1cc([N+](=O)[O-])ccc1-2
inactive: endpoint: mean survival time, dose: 75.0 mg/kg/injection, schedule: Q01DX001 (ip), vehicle: saline 96 % of control | endpoint: mean survival time, dose: 150.0 mg/kg/injection, schedule: Q01DX001 (ip), vehicle: saline 95 % of control | endpoint: mean survival time, dose: 300.0 mg/kg/injection, schedule: Q01DX001 (ip), vehicle: saline 98 % of control

CCOC1OCN(C(C)(C)C)CC1(C)C (configuration not stated)
inactive: endpoint: mean survival time, dose: 100.0 mg/kg/injection, schedule: Q01DX009 (ip), vehicle: saline 118 % of control | endpoint: mean survival time, dose: 200.0 mg/kg/injection, schedule: Q01DX009 (ip), vehicle: saline 116 % of control

O=C(O)c1cc(I)ccc1I
inactive: [6] 93 % of control | [7] 104 % of control | endpoint: mean survival time, dose: 400.0 mg/kg/injection, schedule: Q01DX009 (ip), vehicle: Klucel (hydroxypropylcellulose) (HPC) 103 % of control

Cn1ncc2c(Cl)ncnc21
inactive: endpoint: mean survival time, dose: 100.0 mg/kg/injection, schedule: Q01DX001 (ip), vehicle: other 113 % of control | endpoint: mean survival time, dose: 200.0 mg/kg/injection, schedule: Q01DX001 (ip), vehicle: other 94 % of control | endpoint: mean survival time, dose: 400.0 mg/kg/injection, schedule: Q01DX001 (ip), vehicle: other 102 % of control

ClC(CCC(Cl)c1ccccc1)c1ccccc1 (configuration not stated)
inactive: endpoint: mean survival time, dose: 100.0 mg/kg/injection, schedule: Q04DX002 (ip), vehicle: Klucel (hydroxypropylcellulose) (HPC) 101 % of control | endpoint: mean survival time, dose: 200.0 mg/kg/injection, schedule: Q04DX002 (ip), vehicle: Klucel (hydroxypropylcellulose) (HPC) 104 % of control | endpoint: mean survival time, dose: 400.0 mg/kg/injection, schedule: Q04DX002 (ip), vehicle: Klucel (hydroxypropylcellulose) (HPC) 101 % of control

O=C(COc1ccc(Cl)c(Cl)c1)NCCc1cc[n+](Cc2ccc(S(=O)(=O)F)cc2)cc1
inactive: [1] 102 % of control | [2] 86 % of control

CCOC(=O)C1c2cc3c(cc2C(c2cc(OC)c(OC)c(OC)c2)C2C(=O)OCC12)OCO3 (configuration not stated)
inactive: endpoint: mean survival time, dose: 2.5 mg/kg/injection, schedule: Q01DX009 (ip), vehicle: Klucel (hydroxypropylcellulose) (HPC) 112 % of control | endpoint: mean survival time, dose: 3.0 mg/kg/injection, schedule: Q01DX009 (ip), vehicle: Klucel (hydroxypropylcellulose) (HPC) 124 % of control | endpoint: mean survival time, dose: 4.0 mg/kg/injection, schedule: Q01DX009 (ip), vehicle: Klucel (hydroxypropylcellulose) (HPC) 105 % of control | endpoint: mean survival time, dose: 6.0 mg/kg/injection, schedule: Q01DX009 (ip), vehicle: Klucel (hydroxypropylcellulose) (HPC) 113 % of control | endpoint: mean survival time, dose: 9.0 mg/kg/injection, schedule: Q01DX009 (ip), vehicle: Klucel (hydroxypropylcellulose) (HPC) 115 % of control | endpoint: mean survival time, dose: 12.5 mg/kg/injection, schedule: Q01DX009 (ip), vehicle: Klucel (hydroxypropylcellulose) (HPC) 88 % of control

CCOP(=O)(Cc1ccc(Cl)cc1)OCC
inactive: endpoint: mean survival time, dose: 100.0 mg/kg/injection, schedule: Q01DX009 (ip), vehicle: carboxymethylcellulose (CMC) 102 % of control and 90 % of control | endpoint: mean survival time, dose: 100.0 mg/kg/injection, schedule: Q04DX002 (ip), vehicle: carboxymethylcellulose (CMC) 98 % of control and 107 % of control | endpoint: mean survival time, dose: 100.0 mg/kg/injection, schedule: Q04DX003 (ip), vehicle: carboxymethylcellulose (CMC) 96 % of control | endpoint: mean survival time, dose: 200.0 mg/kg/injection, schedule: Q01DX009 (ip), vehicle: carboxymethylcellulose (CMC) 104 % of control and 107 % of control | endpoint: mean survival time, dose: 200.0 mg/kg/injection, schedule: Q04DX002 (ip), vehicle: carboxymethylcellulose (CMC) 93 % of control and 101 % of control | endpoint: mean survival time, dose: 200.0 mg/kg/injection, schedule: Q04DX003 (ip), vehicle: carboxymethylcellulose (CMC) 100 % of control | endpoint: mean survival time, dose: 400.0 mg/kg/injection, schedule: Q04DX002 (ip), vehicle: carboxymethylcellulose (CMC) 93 % of control and 95 % of control

Cc1c(CC(Cl)Cl)cc(-c2ccccc2)c2ccccc12
inactive: [8] 96 % of control | [9] 92 % of control | [10] 100 % of control

O=C(O)C1C2/C=C/CCCCC21 (configuration not stated)
inactive: endpoint: mean survival time, dose: 100.0 mg/kg/injection, schedule: Q04DX002 (ip), vehicle: other 104 % of control | endpoint: mean survival time, dose: 200.0 mg/kg/injection, schedule: Q04DX002 (ip), vehicle: other 86 % of control | endpoint: mean survival time, dose: 400.0 mg/kg/injection, schedule: Q04DX002 (ip), vehicle: other 93 % of control

CC(=O)S[C@@H]1CC2=CC(=O)CC[C@]2(C)[C@H]2CC[C@@]3(C)[C@@H](CC[C@@]34CCC(=O)O4)[C@H]12
inactive: endpoint: mean survival time, dose: 45.0 mg/kg/injection, schedule: Q01DX009 (sc), vehicle: steriod suspending solution 107 % of control | endpoint: mean survival time, dose: 90.0 mg/kg/injection, schedule: Q01DX009 (sc), vehicle: steriod suspending solution 102 % of control | [8] 90 % of control | endpoint: mean survival time, dose: 180.0 mg/kg/injection, schedule: Q01DX009 (sc), vehicle: steriod suspending solution 100 % of control | endpoint: median survival time, dose: 100.0 mg/kg/injection, schedule: Q01DX001 (ip), vehicle: water 97 % of control | endpoint: median survival time, dose: 100.0 mg/kg/injection, schedule: Q01DX009 (sc), vehicle: steriod suspending solution 101 % of control | endpoint: median survival time, dose: 200.0 mg/kg/injection, schedule: Q01DX001 (ip), vehicle: water 91 % of control | endpoint: median survival time, dose: 200.0 mg/kg/injection, schedule: Q01DX009 (sc), vehicle: steriod suspending solution 95 % of control | endpoint: median survival time, dose: 400.0 mg/kg/injection, schedule: Q01DX001 (ip), vehicle: water 97 % of control | endpoint: median survival time, dose: 400.0 mg/kg/injection, schedule: Q01DX009 (sc), vehicle: steriod suspending solution 96 % of control

C[n+]1ccc(/C=C/c2csc3ccccc23)cc1
inactive: endpoint: mean survival time, dose: 5.0 mg/kg/injection, schedule: Q01DX001 (ip), vehicle: carboxymethylcellulose (CMC) 107 % of control | endpoint: mean survival time, dose: 10.0 mg/kg/injection, schedule: Q01DX001 (ip), vehicle: carboxymethylcellulose (CMC) 96 % of control | endpoint: mean survival time, dose: 20.0 mg/kg/injection, schedule: Q01DX001 (ip), vehicle: carboxymethylcellulose (CMC) 91 % of control | endpoint: mean survival time, dose: 40.0 mg/kg/injection, schedule: Q01DX001 (ip), vehicle: carboxymethylcellulose (CMC) 98 % of control

O=C1C(=O)c2ccccc2-c2ccccc21
inactive: endpoint: mean survival time, dose: 50.0 mg/kg/injection, schedule: Q04DX003 (ip), vehicle: Klucel (hydroxypropylcellulose) (HPC) 98 % of control | [8] 97 % of control | [9] 98 % of control
